Like-named read-outs stand apart in the source and are kept apart here.

What all share (experiment): Radiolabeled ATP kinase assay, panel of 60 kinases (Table S5)
Common to all, as to format: biochemical

The target in test [1] is T1, panel of 60 human kinases (Homo sapiens, UniProt Q16539).
T1 construct: purchased Reaction Biology Corp
The note with it: P38a/MAPK14; 0.1 μM; 10 μM ATP; read-out: % Enzyme Activity (relative to DSMO controls). In outline: (§1)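 Cell-free radiolabeled-ATP kinase assays across a panel of 60 kinases; each compound tested at 0.1 μM and 0.5 μM for inhibition.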

Test [2] has as its target T2, panel of 60 human kinases (Homo sapiens, UniProt Q9UKE5).
T2 construct: purchased Reaction Biology Corp
The following applies: TNIK; 0.1 μM; 10 μM ATP; read-out: % Enzyme Activity (relative to DSMO controls). In outline:
as §1

Test [3] deals with T3, panel of 60 human kinases (Homo sapiens, UniProt Q9H2K8).
T3 construct: purchased Reaction Biology Corp
T3 sequence (Q9H2K8 1-898): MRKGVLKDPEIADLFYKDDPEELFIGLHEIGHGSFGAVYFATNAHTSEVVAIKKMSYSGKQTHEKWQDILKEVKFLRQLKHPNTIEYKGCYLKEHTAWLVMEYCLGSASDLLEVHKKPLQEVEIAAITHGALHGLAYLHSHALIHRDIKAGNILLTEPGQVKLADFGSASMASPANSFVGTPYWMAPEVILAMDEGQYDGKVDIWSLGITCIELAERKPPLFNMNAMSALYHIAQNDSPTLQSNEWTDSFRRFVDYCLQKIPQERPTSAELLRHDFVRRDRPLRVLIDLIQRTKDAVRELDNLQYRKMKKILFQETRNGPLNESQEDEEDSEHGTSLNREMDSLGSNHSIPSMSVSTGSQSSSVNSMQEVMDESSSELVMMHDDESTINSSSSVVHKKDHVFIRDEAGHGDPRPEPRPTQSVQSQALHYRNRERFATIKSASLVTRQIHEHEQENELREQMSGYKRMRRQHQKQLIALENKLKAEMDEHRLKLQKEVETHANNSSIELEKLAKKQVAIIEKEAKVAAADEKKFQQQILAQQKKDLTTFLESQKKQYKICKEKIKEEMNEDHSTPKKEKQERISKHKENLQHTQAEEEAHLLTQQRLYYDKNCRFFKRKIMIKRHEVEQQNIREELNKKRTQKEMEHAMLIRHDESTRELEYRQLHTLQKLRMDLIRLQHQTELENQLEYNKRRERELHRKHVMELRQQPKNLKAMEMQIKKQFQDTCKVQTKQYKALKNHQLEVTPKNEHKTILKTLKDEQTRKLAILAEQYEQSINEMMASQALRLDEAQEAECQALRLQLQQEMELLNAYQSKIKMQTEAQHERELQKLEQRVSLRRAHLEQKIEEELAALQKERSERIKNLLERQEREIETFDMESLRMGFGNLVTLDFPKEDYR
The note with it: TAOK3/JIK; 0.1 μM; 10 μM ATP; read-out: % Enzyme Activity (relative to DSMO controls). In outline: as §1

Test [4] concerns the target T4, panel of 60 human kinases (Homo sapiens, UniProt P00519).
T4 construct: purchased Reaction Biology Corp
The note with it: ABL1; 0.1 μM; 10 μM ATP; read-out: % Enzyme Activity (relative to DSMO controls). A digest of the protocol:
as §1

In test [5] the target is T5, panel of 60 human kinases (Homo sapiens, UniProt Q00537).
T5 construct: purchased Reaction Biology Corp
The following applies: CDK17/cyclin Y (PCTK2); 0.1 μM; 10 μM ATP; read-out: % Enzyme Activity (relative to DSMO controls). A digest of the protocol:
as §1

Test [6] concerns the target T6, panel of 60 human kinases (Homo sapiens, UniProt Q9Y4K4).
T6 construct: purchased Reaction Biology Corp
The note with it: KHS/MAPK4K5; 0.1 μM; 10 μM ATP; read-out: % Enzyme Activity (relative to DSMO controls). In outline:
as §1

The target of test [7] is T7, panel of 60 human kinases (Homo sapiens, UniProt Q13470).
T7 construct: purchased Reaction Biology Corp
T7 sequence (Q13470 1-666): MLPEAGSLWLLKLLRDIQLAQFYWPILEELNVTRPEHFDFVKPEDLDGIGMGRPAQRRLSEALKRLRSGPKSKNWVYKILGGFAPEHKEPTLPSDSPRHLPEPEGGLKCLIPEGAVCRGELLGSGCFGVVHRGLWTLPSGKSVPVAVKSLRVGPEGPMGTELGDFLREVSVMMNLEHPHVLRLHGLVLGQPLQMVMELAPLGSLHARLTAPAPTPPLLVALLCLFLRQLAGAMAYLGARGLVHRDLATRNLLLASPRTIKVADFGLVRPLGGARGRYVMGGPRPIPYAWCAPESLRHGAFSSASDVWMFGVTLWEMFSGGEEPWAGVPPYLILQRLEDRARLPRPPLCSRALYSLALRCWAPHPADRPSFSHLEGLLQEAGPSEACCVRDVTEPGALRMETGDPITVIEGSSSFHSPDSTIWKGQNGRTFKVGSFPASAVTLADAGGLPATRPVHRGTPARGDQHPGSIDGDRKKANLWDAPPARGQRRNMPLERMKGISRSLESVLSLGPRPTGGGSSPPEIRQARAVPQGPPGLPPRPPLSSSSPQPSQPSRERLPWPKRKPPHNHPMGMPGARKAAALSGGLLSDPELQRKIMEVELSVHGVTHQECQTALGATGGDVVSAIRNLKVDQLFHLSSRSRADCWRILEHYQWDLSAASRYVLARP
The following applies: TNK1; 0.1 μM; 10 μM ATP; read-out: % Enzyme Activity (relative to DSMO controls). In outline: as §1

Test [8] concerns the target T8, panel of 60 human kinases (Homo sapiens, UniProt P45983).
T8 construct: purchased Reaction Biology Corp
The following applies: JNK1; 0.1 μM; 10 μM ATP; read-out: % Enzyme Activity (relative to DSMO controls). A digest of the protocol: as §1

The target of test [9] is T9, panel of 60 human kinases (Homo sapiens, UniProt P24941).
T9 construct: purchased Reaction Biology Corp
The note with it: 0.1 μM, 10 μM ATP, read-out: % Enzyme Activity (relative to DSMO controls). In outline:
as §1

T1 sequence (Q16539 whole entry): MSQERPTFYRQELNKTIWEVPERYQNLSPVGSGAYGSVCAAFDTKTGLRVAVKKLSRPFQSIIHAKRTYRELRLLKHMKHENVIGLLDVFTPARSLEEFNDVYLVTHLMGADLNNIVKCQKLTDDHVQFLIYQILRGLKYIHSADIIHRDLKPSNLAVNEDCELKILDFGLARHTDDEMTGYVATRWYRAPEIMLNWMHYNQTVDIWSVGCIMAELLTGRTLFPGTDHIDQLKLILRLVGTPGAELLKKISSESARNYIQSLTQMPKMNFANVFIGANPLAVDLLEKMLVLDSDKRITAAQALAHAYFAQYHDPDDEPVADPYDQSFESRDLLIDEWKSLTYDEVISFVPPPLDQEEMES
T5 sequence (Q00537 whole entry): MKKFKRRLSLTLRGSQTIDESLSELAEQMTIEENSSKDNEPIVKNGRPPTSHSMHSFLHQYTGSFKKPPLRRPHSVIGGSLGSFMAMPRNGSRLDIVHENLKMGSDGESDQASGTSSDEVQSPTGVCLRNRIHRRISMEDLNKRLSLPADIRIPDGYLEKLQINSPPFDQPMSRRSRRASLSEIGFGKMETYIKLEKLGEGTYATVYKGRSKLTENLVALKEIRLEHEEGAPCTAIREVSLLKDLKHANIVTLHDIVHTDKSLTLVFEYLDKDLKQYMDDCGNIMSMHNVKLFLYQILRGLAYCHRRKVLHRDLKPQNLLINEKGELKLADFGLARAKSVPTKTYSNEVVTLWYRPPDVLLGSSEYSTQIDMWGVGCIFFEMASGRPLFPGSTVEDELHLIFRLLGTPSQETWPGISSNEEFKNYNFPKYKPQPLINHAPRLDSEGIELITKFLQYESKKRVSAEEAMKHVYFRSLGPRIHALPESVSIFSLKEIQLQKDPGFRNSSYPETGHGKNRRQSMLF
T2 sequence (Q9UKE5 whole entry): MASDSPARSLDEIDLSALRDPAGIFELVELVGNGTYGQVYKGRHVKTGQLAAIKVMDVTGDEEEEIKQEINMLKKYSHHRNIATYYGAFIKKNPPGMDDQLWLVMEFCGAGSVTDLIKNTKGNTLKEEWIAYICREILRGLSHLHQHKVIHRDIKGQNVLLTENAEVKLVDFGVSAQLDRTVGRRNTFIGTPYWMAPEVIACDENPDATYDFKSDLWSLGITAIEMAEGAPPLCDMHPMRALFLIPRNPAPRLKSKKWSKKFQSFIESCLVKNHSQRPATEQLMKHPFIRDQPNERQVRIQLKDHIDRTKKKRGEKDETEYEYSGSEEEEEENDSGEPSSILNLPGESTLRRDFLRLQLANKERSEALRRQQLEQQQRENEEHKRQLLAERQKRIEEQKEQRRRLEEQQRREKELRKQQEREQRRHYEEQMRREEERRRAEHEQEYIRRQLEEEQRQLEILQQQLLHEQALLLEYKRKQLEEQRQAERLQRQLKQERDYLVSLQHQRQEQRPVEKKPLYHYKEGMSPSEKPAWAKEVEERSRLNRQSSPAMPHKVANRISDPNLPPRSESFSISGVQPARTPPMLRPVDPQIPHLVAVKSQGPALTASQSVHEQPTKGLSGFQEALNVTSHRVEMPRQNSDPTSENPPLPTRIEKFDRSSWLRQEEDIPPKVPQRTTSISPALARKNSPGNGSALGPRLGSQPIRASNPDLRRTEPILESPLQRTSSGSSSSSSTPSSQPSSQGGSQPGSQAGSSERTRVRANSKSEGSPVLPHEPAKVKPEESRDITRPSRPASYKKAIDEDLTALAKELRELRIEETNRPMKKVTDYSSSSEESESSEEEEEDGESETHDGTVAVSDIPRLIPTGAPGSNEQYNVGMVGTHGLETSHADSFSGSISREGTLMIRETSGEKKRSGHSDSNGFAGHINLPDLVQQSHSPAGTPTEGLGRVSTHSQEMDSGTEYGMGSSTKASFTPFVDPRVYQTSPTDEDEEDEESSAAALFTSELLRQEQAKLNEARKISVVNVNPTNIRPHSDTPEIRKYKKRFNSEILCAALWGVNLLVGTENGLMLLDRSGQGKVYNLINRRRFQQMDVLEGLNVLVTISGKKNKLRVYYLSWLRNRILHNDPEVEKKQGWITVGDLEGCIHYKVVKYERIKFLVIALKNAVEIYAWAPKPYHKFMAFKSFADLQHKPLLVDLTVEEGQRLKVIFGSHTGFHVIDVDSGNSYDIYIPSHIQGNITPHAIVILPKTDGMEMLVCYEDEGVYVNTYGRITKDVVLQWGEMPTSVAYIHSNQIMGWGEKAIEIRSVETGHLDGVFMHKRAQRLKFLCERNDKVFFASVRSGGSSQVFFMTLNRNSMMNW
T8 sequence (P45983 whole entry): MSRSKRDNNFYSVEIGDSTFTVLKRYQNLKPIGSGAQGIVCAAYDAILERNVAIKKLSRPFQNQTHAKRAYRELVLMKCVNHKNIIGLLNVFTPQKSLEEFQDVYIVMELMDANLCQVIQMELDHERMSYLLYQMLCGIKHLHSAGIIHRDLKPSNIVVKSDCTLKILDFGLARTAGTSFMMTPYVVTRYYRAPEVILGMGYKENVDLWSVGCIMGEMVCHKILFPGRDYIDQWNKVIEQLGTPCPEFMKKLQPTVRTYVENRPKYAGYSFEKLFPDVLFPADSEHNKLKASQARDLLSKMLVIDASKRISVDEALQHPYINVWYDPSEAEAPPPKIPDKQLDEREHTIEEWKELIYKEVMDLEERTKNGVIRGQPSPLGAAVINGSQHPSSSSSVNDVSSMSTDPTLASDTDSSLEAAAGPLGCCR
T4 sequence (P00519 whole entry): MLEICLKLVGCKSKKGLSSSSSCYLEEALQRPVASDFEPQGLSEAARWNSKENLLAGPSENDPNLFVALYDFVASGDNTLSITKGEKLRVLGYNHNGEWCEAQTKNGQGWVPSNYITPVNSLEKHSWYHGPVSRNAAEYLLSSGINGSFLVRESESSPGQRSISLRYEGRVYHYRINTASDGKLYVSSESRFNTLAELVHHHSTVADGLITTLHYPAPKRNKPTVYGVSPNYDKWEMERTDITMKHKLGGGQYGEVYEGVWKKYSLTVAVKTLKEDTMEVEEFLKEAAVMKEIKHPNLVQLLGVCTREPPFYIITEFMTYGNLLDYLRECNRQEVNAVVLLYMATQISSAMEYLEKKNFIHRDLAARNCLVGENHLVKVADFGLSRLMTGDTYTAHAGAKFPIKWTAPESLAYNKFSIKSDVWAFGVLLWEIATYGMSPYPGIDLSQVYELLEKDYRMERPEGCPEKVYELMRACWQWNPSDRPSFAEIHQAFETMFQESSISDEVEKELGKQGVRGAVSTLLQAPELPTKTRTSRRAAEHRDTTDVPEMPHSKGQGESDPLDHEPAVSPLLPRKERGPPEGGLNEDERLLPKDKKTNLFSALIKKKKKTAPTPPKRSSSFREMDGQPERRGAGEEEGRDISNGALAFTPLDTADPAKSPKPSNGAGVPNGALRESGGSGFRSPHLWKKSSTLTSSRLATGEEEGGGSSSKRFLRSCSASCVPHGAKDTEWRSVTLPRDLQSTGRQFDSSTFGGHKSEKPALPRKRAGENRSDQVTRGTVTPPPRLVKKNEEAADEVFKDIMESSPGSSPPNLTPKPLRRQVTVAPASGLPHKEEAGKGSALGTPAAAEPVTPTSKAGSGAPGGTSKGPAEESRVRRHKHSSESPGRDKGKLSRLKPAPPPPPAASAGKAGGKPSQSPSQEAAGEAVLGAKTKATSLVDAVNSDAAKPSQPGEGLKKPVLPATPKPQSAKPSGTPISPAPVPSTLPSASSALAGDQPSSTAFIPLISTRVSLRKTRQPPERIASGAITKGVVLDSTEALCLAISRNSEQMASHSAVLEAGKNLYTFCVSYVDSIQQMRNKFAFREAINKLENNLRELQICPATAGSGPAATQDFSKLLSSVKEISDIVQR
T6 sequence (Q9Y4K4 whole entry): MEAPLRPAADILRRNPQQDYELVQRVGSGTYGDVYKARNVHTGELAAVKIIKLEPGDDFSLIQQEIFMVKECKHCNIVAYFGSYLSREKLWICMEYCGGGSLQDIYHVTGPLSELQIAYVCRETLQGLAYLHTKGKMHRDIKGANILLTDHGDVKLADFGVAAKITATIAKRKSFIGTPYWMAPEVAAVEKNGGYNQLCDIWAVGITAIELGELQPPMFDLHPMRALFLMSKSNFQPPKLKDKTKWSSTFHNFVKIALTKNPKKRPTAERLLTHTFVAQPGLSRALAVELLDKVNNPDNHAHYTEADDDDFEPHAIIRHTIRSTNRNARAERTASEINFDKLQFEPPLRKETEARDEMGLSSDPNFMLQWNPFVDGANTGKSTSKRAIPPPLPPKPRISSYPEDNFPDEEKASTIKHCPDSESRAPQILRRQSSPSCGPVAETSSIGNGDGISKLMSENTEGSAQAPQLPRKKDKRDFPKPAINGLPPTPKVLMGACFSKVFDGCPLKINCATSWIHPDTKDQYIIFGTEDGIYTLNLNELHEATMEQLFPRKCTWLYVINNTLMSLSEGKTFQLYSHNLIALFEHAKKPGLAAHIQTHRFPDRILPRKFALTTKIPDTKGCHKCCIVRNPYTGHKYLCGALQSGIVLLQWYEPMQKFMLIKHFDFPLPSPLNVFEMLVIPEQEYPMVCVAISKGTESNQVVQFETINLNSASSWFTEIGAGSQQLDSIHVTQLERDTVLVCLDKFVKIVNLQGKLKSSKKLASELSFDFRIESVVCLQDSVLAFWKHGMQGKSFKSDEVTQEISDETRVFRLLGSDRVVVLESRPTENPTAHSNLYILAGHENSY

Turning to `CN1CCN(Cc2ccc(-c3cnc4[nH]cc(-c5ccncc5)c4c3)cc2)CC1` [Compound 7n, 5-(4-((4-Methylpiperazin-1-yl)methyl)phenyl)-3-(pyridin-4-yl)-1H-pyrrolo[2,3-b]pyridine], the remaining activity at 0.1 µM is 101% in [1]; 6.7% in test [2]; 94.9% in [3]; 88.4% in test [4]; 10.7% in test [5]; 30.9% in test [6]. The remaining activity at 0.1 µM in [7] is 87.8%; in test [8], 85.5%; in [9] (CDK2/cyclin A1), 60.2%; in test [9] (CDK2/cyclin A) it was 66%; in [9] (CDK2/cyclin E), 54.3%; in test [9] (CDK2/cyclin O), 43.7%.
Consider `CN1CCN(Cc2ccc(-c3cnc4[nH]cc(-c5ccoc5)c4c3)cc2)CC1` [Compound 7w, 3-(Furan-3-yl)-5-(4-((4-methylpiperazin-1-yl)methyl)phenyl)-1H-pyrrolo[2,3-b]pyridine], for which the remaining activity at 0.1 µM in [1] came to 110%; in test [2], 0.45%; in test [3] it was 95.2%; in [4] it was 64.8%; in test [5], 61.4%; in [6], 15.1%. Moreover, the remaining activity at 0.1 µM in [7] was determined as 73.2%; in test [8], 76.8%; in test [9] (CDK2/cyclin A1) it was 88.6%; in test [9] (CDK2/cyclin A), 91.1%; in test [9] (CDK2/cyclin E), 92.4%; in [9] (CDK2/cyclin O), 80.2%.

The values are drawn from US12227500B2, “Substituted pyrrolo[2,3-b]pyridines for suppressing toxic endoplasmic reticulum stress” (THE TRUSTEES OF COLUMBIA UNIVERSITY IN THE CITY OF NEW YORK, priority 2018, dated 2025).
